Test: gradient 5% acetonitrile 3 min, to 50% in 2 min, to 85% in 15 min, held 3 min, 100 µL/min
Conditions: column: Zorbax Extend-C18 2.1 x 50 mm; eluents: water / acetonitrile, 0.1% formic acid
Procedure, shortened: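 The system's dead and dwell volumes were 40 μL and 900 μL, with a Zorbax Extend-C18 column (2.1 × 50 mm, 1.8 μm) run at 100 μL/min in water and acetonitrile containing 0.1% formic acid each. Pure standards were analyzed in mixtures of ~100 molecules by HPLC–quadrupole time-of-flight mass spectrometry in positive and negative ionization mode. Retention time was assigned from computationally picked, manually inspected adduct peaks.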

| RP-LC retention time | Structure (SMILES) |
| --- | --- |
| 861 s | Cc1nnc(-c2ccc3ccn(CC(=O)Nc4ccc(F)c(Cl)c4)c3c2)o1 |
| 648 s | CC(C)n1c(CC2CCN(C(=O)Nc3ccccc3Cl)C2)nc2cccnc21 (stereo not given) |
| 802 s | CCCC(NC(=O)c1ccc(C(F)(F)F)cc1)C(=O)Nc1nc2ccccc2[nH]1 (stereo not given) |
| 1120 s | CCn1c(=O)c2ccccc2n(Cc2nc(-c3cccc(Br)c3)no2)c1=O |
| 617 s | COc1cc(C(=O)NCC(=O)Nc2nc3ccccc3[nH]2)cc(OC)c1OC |
| 849 s | COc1ccc(-n2c(=O)n(C)c(=O)c3cc(C(=O)Nc4ccc(C)cc4F)cnc32)cc1 |
| 947 s | Cc1ccc(CNC(=O)c2nnc(-c3ccc(S(=O)(=O)N(C)C)cc3)o2)cc1C |
| 775 s | CCOc1ccc(NC(=O)C2CCN(S(=O)(=O)c3cn(C(C)C)cn3)CC2)cc1 |
| 722 s | CCC(=O)N1CCc2cc(N3CC(C(=O)NCc4ccccc4F)CC3=O)ccc21 (stereo not given) |
| 762 s | COc1ccc(CC(=O)NC2CCN(c3cc(-c4ccc(Cl)cc4)[nH]n3)C2)cc1 (stereo not given) |
| 783 s | CCC(C)C(NC(=O)CCc1ccccc1OC)C(=O)Nc1nc2ccccc2[nH]1 (stereo not given) |
| 736 s | O=C(Nc1ccccc1)N1CCc2nn(Cc3ccccc3)c(=O)n2CC1 |
| 766 s | O=C(CN1C(=O)c2cccnc2Oc2ccccc21)NCCc1c[nH]c2ccccc12 |
| 1310 s | COc1ccc(-c2ccnn2-c2ccc(SCc3ccccc3F)nn2)cc1 |
| 711 s | COc1ccc(C(=O)N2CCC3(CC2)NC(=O)c2cc(C)ccc2N3C)cc1OC |
| 744 s | Cc1c(F)cccc1NC(=O)N1CCCC1c1nncn1-c1ccccc1 (stereo not given) |
| 602 s | CC(C)NS(=O)(=O)c1ccc(NC(=O)Cn2cncn2)cc1 |
| 1010 s | CCOc1ccccc1NC(=O)N1CCc2nc(-c3ccccc3)ncc2C1 |
| 633 s | COCCNC(=O)C1CCCN(c2ncnc3c2oc2ccccc23)C1 (stereo not given) |
| 1070 s | CCOc1ccccc1NC(=O)N(C)CCc1noc(C2CCCCC2)n1 |
| 1100 s | CC(=O)N[C@@H](Cc1c[nH]c2ccccc12)C(=O)OCc1cc(C(F)(F)F)cc(C(F)(F)F)c1 |
| 643 s | COCCC(=O)N1CCCCC1c1nncn1Cc1ccccc1 (stereo not given) |
| 875 s | Cc1nc(Nc2ccc(F)cn2)sc1C(=O)N1CCN(c2ccccc2)CC1 |
| 836 s | CCCCn1cnc2c(-c3ccccc3)cn(CC(=O)N3CCCC3)c2c1=O |
| 764 s | COC(=O)c1c(NCc2cccs2)c2cccc(Cl)c2[nH]c1=O |
| 878 s | COC(=O)c1ccccc1NC(=O)Cn1c(=O)c(CCC(=O)NCC(C)C)nc2ccccc21 |
| 948 s | CC1CCCCN1c1nc(-c2ccc([N+](=O)[O-])cc2)nc2ccccc12 (stereo not given) |
| 786 s | Cc1ccc(Nc2c(-c3ccccc3)nc3ncccn23)c(C)c1 |

Second part, the compound before the results:

| Structure (SMILES) | RP-LC retention time |
| --- | --- |
| Cc1ccc(-c2noc(CN3N=NC4C(=O)N(c5ccc(C)cc5)C(=O)C43)n2)cc1 (stereo not given) | 1020 s |
| Cc1cccc2nnc(N3CCC(C(=O)NCC4CCCCC4)CC3)n12 | 709 s |
| CC(=O)N1CCc2cc(-c3ccc(C(=O)N4CCN(C(=O)c5ccco5)CC4)cc3)ccc21 | 662 s |
| CCC(=O)OCCN1C(=O)c2cccc3c(N4CCCCC4)ccc(c23)C1=O | 1170 s |
| Cc1ccc(N2C(=O)CC(N3CCC(C(N)=O)CC3)C2=O)cc1C (stereo not given) | 607 s |
| CCN(CC)S(=O)(=O)c1ccc2c(c1)N(CC(=O)NCc1cccnc1)C(=O)C1CCCCN21 (stereo not given) | 653 s |
| O=C(NC1CCN(c2cc(-c3ccc(F)cc3)[nH]n2)C1)c1cc(F)ccc1Cl (stereo not given) | 685 s |
| O=C(Nc1ccc(F)cc1)C1CCCN(c2ccc3cc(S(=O)(=O)N4CCCC4)ccc3n2)C1 (stereo not given) | 634 s |
| COC1CN(c2cccc(F)c2)C12CCN(Cc1ccccn1)CC2 (stereo not given) | 699 s |
| CCN1CCCn2cc(S(=O)(=O)Nc3cc(F)cc(F)c3)cc2C1=O | 768 s |
| Cc1nn2c(S(=O)(=O)NCc3cccs3)c(C)nc2s1 | 704 s |
| O=S(=O)(Nc1ccc(F)cc1)c1cccnc1Nc1ccc(F)c(F)c1 | 1080 s |
| CN1CCN(CCNC(=O)Cn2c3ccccc3c3cnn(C)c(=O)c32)CC1 | 570 s |
| CCOc1ccc(C2CNC(=O)C2C(=O)OC)cc1OCC (stereo not given) | 694 s |
| O=C(C1CC(=O)N(c2cccc(-c3noc(C4CCC4)n3)c2)C1)N1CCN(c2ccccc2)CC1 (stereo not given) | 1010 s |
| Cc1ccc(S(=O)(=O)n2nc(-c3ccc(C)c(C)c3)nc2N)cc1 | 1000 s |
| O=C(c1csc(S(=O)(=O)N2CCC(C(=O)N3CCc4ccccc43)CC2)c1)N1CCOCC1 | 779 s |
| Clc1cccc(-c2noc(Cc3nc(-c4cccs4)cs3)n2)c1 | 1270 s |
| Clc1nnc2c3ccccc3ccn12 | 747 s |

| Structure (SMILES) | RP-LC retention time |
| --- | --- |
| CC(=O)N1CCCSc2ccc(S(=O)(=O)N3CCC(CN4CCc5ccccc5C4)CC3)cc21 | 671 s |
| O=C1CCCC(=O)N1CCS(=O)(=O)N1CCC(c2nnc(-c3ccco3)s2)CC1 | 671 s |
| Cc1ccc(Nc2c(-c3ccc(O)cc3)nc3ccc(C)cn23)cc1 | 721 s |
| CN1CCN(C2CCN(C(=O)Nc3cc(Oc4ccc(NC(=O)C5(C(=O)Nc6ccc(F)cc6)CC5)c(F)c4)ccn3)CC2)CC1 | 659 s |
| CCOc1ccc(CNC(=O)C2CCCN(c3cc(=O)n(C)c(=O)n3CC)C2)cc1OCC (stereo not given) | 791 s |
| O=C(c1cncc(Br)c1)N1CCN(C(=O)c2cc(-c3ccncc3)n[nH]2)CC1 | 578 s |
| O=C(C1CCN(c2nc3ccc(-c4ccc(F)cc4)nc3s2)CC1)N1CCOCC1 | 864 s |
| CS(=O)(=O)N1CCCc2cc(C(=O)Nc3ccc(Br)cc3)ccc21 | 951 s |
| Cn1c(=O)c2c(nc3n(-c4ccc(O)cc4)c(-c4ccc(Cl)cc4)cn23)n(C)c1=O | 813 s |
| CCn1ccc2cc(S(=O)(=O)N3CCCC(C(=O)NC4CCCCC4)C3)ccc21 (stereo not given) | 1010 s |
| Cc1cc(Cl)ccc1NC(=O)C1CCN(S(=O)(=O)c2cc(C(=O)N3CCCC3)cs2)CC1 | 892 s |
| CCC(C)NC(=O)c1c(C)sc2ccn(CC)c(=O)c12 (stereo not given) | 709 s |
| COc1ccc2[nH]c(C(=O)NC3CC3)cc2c1 | 703 s |
| CCCn1nnc2cc(S(=O)(=O)N3CCCC(C(=O)N4CCCCCC4)C3)ccc21 (stereo not given) | 890 s |
| CCN1C(=O)C(CC(=O)NC(C)C)Sc2ncccc21 (stereo not given) | 655 s |
| CCCNC(=O)Nc1ccc(NC(=O)N2CCCC(C(=O)NC3CCCCC3)C2)cc1 (stereo not given) | 702 s |
| CC1CCN(c2cnn(CC(=O)Nc3cccc(C(C)C)c3)c(=O)c2Cl)CC1 | 1100 s |
| O=C(NCc1ccc2c(c1)OCO2)C1CCN(C(=O)c2cc(-c3cccnc3)n[nH]2)CC1 | 656 s |

— the METLIN SMRT retention time set (Domingo-Almenara et al. 2019)
